Data set [1] relates to M. tuberculosis H37Rv. As to the kind of experiment: microbe, parasite or virus in culture. In kind it is cell-based, Mycobacterium tuberculosis.
The test system of a further data set is MTB pMV262-rv0577. As to the kind of experiment: microbe, parasite or virus in culture. In kind it is cell-based. To be noted: Mycobacterium tuberculosis, read-out: MTB pMV262-rv0577 MIC50.
For data set [2], the system named is M. tuberculosis H37Rv. Format: cell-based, Mycobacterium tuberculosis. To be noted: for very rapid ATP depletion in M. tuberculosis: reference compounds, 24 h; for ATP pool depleted: in the presence of glycerol, 24 h after treatment.
A further data set is described as follows: in vitro. Format: cell-based. To be noted: human.
Another data set can be described thus: in vivo. Format: in vivo, CD-1 female mice. To be noted: for fAUC/MIC / fT>MIC: corrected for plasma protein binding; for T>MIC: percentage of dosing interval with plasma levels above MIC.
Data set [3] deals with M. tuberculosis H37Rv. As to the kind of experiment: Metabolomic profiling by LC/MS. In kind it is cell-based, Mycobacterium tuberculosis. To be noted: 24 h after treatment, in the presence of glycerol.
The test system of data set [4] is Rv0577, Rv0911, Rv2298 and lldD2. In kind it is binding, M. bovis BCG.
Setting [5] is: Mycobacterium tuberculosis, H37RV, read-out: MTB H37Rv MIC50.
Where [6] appears, read: Mycobacterium tuberculosis, H37RV.
The mark [7] stands for this setting: female, CD-1, mouse, in vivo, po, 25 mg/kg.
[8] abbreviates: mouse, single oral dose 25 mg kg^−1, lung.
[9] abbreviates: female, CD-1, mouse, in vivo, po, 100 mg/kg.

In brackets after ≈: the same amount, converted by molar mass. Where two headings read alike, the source gives them in different places. Marks after values point to notes of the source that are not given here.

In the case of `[H]/N=C(/N)N[C@H]1[C@H](O)[C@@H](O)[C@H](O[C@@H]2O[C@@H](C)[C@](O)(C=O)[C@H]2O[C@@H]2O[C@@H](CO)[C@H](O)[C@@H](O)[C@@H]2NC)[C@@H](N/C(N)=N\[H])[C@@H]1O` [Streptomycin, streptomycin, reference compound], in the data set on M. tuberculosis H37Rv [1], the “activity against M. tuberculosis in the absence of glycerol in the culture medium” value (“activity against M. tuberculosis” below) is reported as “comparable”. Also, the MIC50 amounted to 0.18 ± 0.02 µM (≈ 0.105 µg/mL) in the data set on M. tuberculosis H37Rv [1] (setting [5]) and 0.12 ± 0.01 µM (≈ 0.0698 µg/mL) in the data set on MTB pMV262-rv0577. Besides, in the data set with M. tuberculosis H37Rv [2], the “very rapid ATP depletion in M. tuberculosis” value is “not observed”.

In general, CC50 refers to the concentration that lowers cell viability or growth by half. Low values mean harm at low concentration, high ones better tolerance by the cells. One may read the AUC as concentration integrated over time. Lower therefore signals less exposure. For orientation: Cmax means the highest concentration seen after dosing. The Tmax is the time at which the peak concentration occurs. For orientation: bioavailability means dose-corrected exposure relative to a reference, in per cent. High values mean much systemic uptake, low ones little systemic uptake. A word on the half-life: it is the time in which the quantity being followed falls by half. As for `c1ccc(-c2nc3cc(Nc4nccn4-c4cc(NC5CCCC5)ncn4)ccc3[nH]2)cc1` [Compound 2, N-(1-(6-(Cyclopentylamino)pyrimidin-4-yl)-1H-imidazol-2-yl)-2-phenyl-1H-benzo[d]imidazol-5-amine], in the data set with M. tuberculosis H37Rv [1] (setting [6]), the MIC50 came out at 0.57 ± 0.23 µM (≈ 0.249 µg/mL). In addition, the MIC50 in the data set on M. tuberculosis H37Rv [1] (setting [5]) was determined as 0.34 ± 0.11 µM (≈ 0.148 µg/mL). The same molecule registered a CC50 in “in vitro” of over 50 µM. Also, in “in vivo” (setting [7]), the area under the curve (AUC) stood at 10600 ng·h/mL, the Cmax amounted to 3800 ng/mL, the Tmax is 0.5 h and the bioavailability worked out at 100%. Also, the half-life in “in vivo” (setting [7]) was 2.2 h. Besides, in “in vivo” (mouse, 25 mg kg^−1, lung), the “Lung AUC/MIC” value is listed as 44.8 and the “Lung T>MIC” value is recorded as 54. In the data set “in vivo” (mouse, 25 mg kg^−1), the fAUC/MIC was found to be 17.8, the “fT>MIC” value is 26% and the “T>MIC” value worked out at 38%. Moreover, the “Lung AUC” value in “in vivo” (setting [8]) came to 10.7 µg·h/g. Also, the MIC50 with MTB pMV262-rv0577 came out at 3.53 ± 1.13 µM (≈ 1.54 µg/mL). Further, the ATP pool depleted in the data set on M. tuberculosis H37Rv [2] is given as over 75%. The “accumulation of glycerol phosphate” value with M. tuberculosis H37Rv [3] is “significant accumulation”.

For `NNC(=O)c1ccncc1` [Isoniazid, isoniazid, reference compound], the “activity against M. tuberculosis” value with M. tuberculosis H37Rv [1] is on record as “comparable”. Besides, the MIC50 with M. tuberculosis H37Rv [1] (setting [5]) was 0.42 ± 0.03 µM (≈ 0.0576 µg/mL). In “in vivo” (setting [7]), the AUC was determined as 52000 ng·h/mL and the Cmax was found to be 28000 ng/mL. In “in vivo” (mouse, 25 mg kg^−1), the “fT>MIC” value was found to be 62% and the “T>MIC” value amounted to 68%. The Tmax in the data set “in vivo” (mouse, single oral dose 25 mg kg^−1, plasma) came out at 0.25 h. The MIC50 with MTB pMV262-rv0577 was determined as 0.37 ± 0.05 µM (≈ 0.0507 µg/mL).

`Cc1ccc(C(=O)N2CCOCC2)cc1Nc1nccn1-c1cc(NC2CC2)ncn1` [Compound 3, (3-(1-(6-(Cyclopropylamino)pyrimidin-4-yl)-1H-imidazol-2-ylamino)-4-methylphenyl)(morpholino)methanone] gave an MIC50 against M. tuberculosis H37Rv [1] (setting [6]) of 0.036 ± 0.04 µM (≈ 0.0151 µg/mL). In “in vitro”, this molecule yielded a CC50 of over 50 µM. In “in vivo” (setting [7]), the AUC worked out at 12400 ng·h/mL, the Cmax worked out at 3000 ng/mL, the time of peak concentration (Tmax) was found to be 0.5 h and the bioavailability was determined as 50%. Further, the half-life in “in vivo” (setting [7]) is 2.3 h. Besides, in “in vivo” (setting [9]), the AUC was 59300 ng·h/mL, the Cmax is 8900 ng/mL, the time of peak concentration (Tmax) amounted to 0.5 h and the bioavailability worked out at 50%. This molecule also had a half-life in the data set “in vivo” (setting [9]) of 3 h. Also, in the data set “in vivo” (mouse, 25 mg kg^−1, lung), the “Lung AUC/MIC” value was 1070.6 and the “Lung T>MIC” value amounted to 100. In the data set “in vivo” (mouse, 25 mg kg^−1), the fAUC/MIC amounted to 113.7, the “fT>MIC” value came out at 47% and the “T>MIC” value turned out to be 73%. In addition, in the data set “in vivo” (mouse, 100 mg kg^−1, lung), the “Lung T>MIC” value is listed as 100. Moreover, the “Lung AUC/MIC” value in the data set “in vivo” (mouse, 100 mg kg^−1, lung, extrapolated assuming lung exposure proportional to dose) was 4654.8 ^*. In “in vivo” (mouse, 100 mg kg^−1), the fAUC/MIC worked out at 544.6, the “fT>MIC” value was 82% and the “T>MIC” value is 100%. Moreover, the exposure versus dose entry in “in vivo” (mouse, 25 and 100 mg kg^−1) is “proportional to dose”. For the same molecule, the “Lung AUC” value in the data set “in vivo” (setting [8]) was 17.5 µg·h/g.

In turn, `O=P(O)(O)OCC(O)CO` (centres unmarked) [glycerol phosphate] showed an MIC50 in the data set on M. tuberculosis H37Rv [1] of 12500 µM.

As for `CC[C@@H](CO)NCCN[C@@H](CC)CO` [EMB, ethambutol, reference compound], in “in vivo” (setting [9]), the AUC amounted to 8000 ng·h/mL, the concentration peaked (Cmax) at 2500 ng/mL, the Tmax is 0.5 h and the half-life was 1.8 h. In “in vivo” (mouse, 100 mg kg^−1, lung), the “Lung AUC” value stood at 145 µg·h/g and the “Lung AUC/MIC” value was 247. Further, in the data set “in vivo” (mouse, 100 mg kg^−1), the fAUC/MIC was 10, the “fT>MIC” value is on record as 15% and the “T>MIC” value turned out to be 17%.

`O=C(CO)COP(=O)(O)O` [DHAP, dihydroxyacetone phosphate]: the MIC50 in the data set with M. tuberculosis H37Rv [1] amounted to 1200 µM.

Consider `Cc1ccc(NC(=O)c2ccccc2)cc1Nc1nccn1-c1cc(NC2CCCC2)ncn1` [Compound 1, N-(3-(1-(6-(Cyclopentylamino)pyrimidin-4-yl)-1H-imidazol-2-ylamino)-4-methylphenyl)benzamide], for which, in the data set on M. tuberculosis H37Rv [1] (setting [6]), the MIC50 was found to be 0.75 ± 0.32 µM (≈ 0.34 µg/mL). Besides, the MIC50 in the data set with M. tuberculosis H37Rv [1] (setting [5]) worked out at 0.35 ± 0.1 µM (≈ 0.159 µg/mL). For the same molecule, the CC50 in the data set “in vitro” is over 50 µM. In the data set “in vivo” (setting [7]), the area under the curve (AUC) came out at 23400 ng·h/mL, the Cmax worked out at 4000 ng/mL, the Tmax came to 1 h and the bioavailability was found to be 100%. The molecule further gave a half-life in the data set “in vivo” (setting [7]) of 2.5 h. In addition, in “in vivo” (mouse, 25 mg kg^−1, lung), the “Lung AUC/MIC” value amounted to 31.2 and the “Lung T>MIC” value amounted to 32. In the data set “in vivo” (mouse, 25 mg kg^−1), the fAUC/MIC was 8.6, the “fT>MIC” value was determined as 10% and the “T>MIC” value is given as 42%. Further, in “in vivo” (setting [8]), the “Lung AUC” value was determined as 10.2 µg·h/g. Also, the MIC50 in the data set with MTB pMV262-rv0577 was 2.32 ± 0.4 µM (≈ 1.05 µg/mL). Also, the ATP pool depleted with M. tuberculosis H37Rv [2] was over 75%. Further, in the data set with M. tuberculosis H37Rv [3], the “accumulation of glycerol phosphate” value is given as “significant accumulation”.

Regarding `CC(=O)C=O` [methylglyoxal], the MIC50 in the data set with M. tuberculosis H37Rv [1] amounted to 400 µM (≈ 28.8 µg/mL).

`Cc1ccc(NC(=O)c2cccc(NCCN)c2)cc1Nc1nccn1-c1cc(NC2CC2)ncn1` [Compound 4, 3-(2-Aminoethylamino)-N-(3-(1-(6-(cyclopropylamino)pyrimidin-4-yl)-1H-imidazol-2-ylamino)-4-methylphenyl)benzamide] displayed an MIC50 against M. tuberculosis H37Rv [1] (setting [6]) of 0.21 ± 0.01 µM (≈ 0.102 µg/mL). For the same molecule, the “binding of candidate proteins to sepharose-linked 4 in the presence of free 4” value in data set [4] is on record as “dramatically decreased”.

On to `COc1c(N2C[C@@H]3CCCN[C@@H]3C2)c(F)cc2c(=O)c(C(=O)O)cn(C3CC3)c12` [moxifloxacin, reference compound], for which the “activity against M. tuberculosis” value in the data set with M. tuberculosis H37Rv [1] is on record as “comparable”. In addition, the “very rapid ATP depletion in M. tuberculosis” value with M. tuberculosis H37Rv [2] is given as “not observed”.
